Experimental data taken from ChEMBL document CHEMBL1135890, “Structure-activity relationships of 2'-fluoro-2',3'-unsaturated D-nucleosides as anti-HIV-1 agents” (J Med Chem, 2002).

Target: Adenosine deaminase (Bos taurus) (UniProt P56658)
Assay: Michaelis constant was determined against mammalian Adenosine deaminase; NS = not a substrate of adenosine deaminase

Adenosine deaminase (Bos taurus), sequence (P56658 whole entry, looked up): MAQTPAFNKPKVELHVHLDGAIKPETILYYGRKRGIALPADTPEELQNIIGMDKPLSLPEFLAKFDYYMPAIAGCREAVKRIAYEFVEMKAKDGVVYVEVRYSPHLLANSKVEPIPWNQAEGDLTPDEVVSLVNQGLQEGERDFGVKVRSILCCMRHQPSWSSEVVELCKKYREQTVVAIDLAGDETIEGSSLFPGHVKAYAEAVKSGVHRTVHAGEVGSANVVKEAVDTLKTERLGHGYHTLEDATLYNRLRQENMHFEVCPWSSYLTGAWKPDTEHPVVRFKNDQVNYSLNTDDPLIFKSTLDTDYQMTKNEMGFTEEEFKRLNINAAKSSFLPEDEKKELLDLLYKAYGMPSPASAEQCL

For `Nc1ncnc2c1ncn2[C@@H]1O[C@H](CO)C=C1F`, the NS was “Not a substrate”.
